Data from US6552015B2, “Azabicycloalkane derivatives and therapeutic uses thereof” (Pfizer Inc., priority 2000, dated 2003).
Where a name gives a salt, the structure may show the parent alone.

| Structure (SMILES) | melting point |
| --- | --- |
| O=c1[nH]c2c(Cl)cccc2c(=O)n1CCCCN1C2CCC1CN(c1ccc(Cl)cc1)C2 (as salt: maleate) | 235 to 238 °C |
| O=c1[nH]c2ccccc2c(=O)n1CCCCN1C2CCC1CN(c1ccc(Cl)cc1)C2 (as salt: maleate) | 187 to 189 °C |
| Cc1ccc(N2CC3CCC(C2)N3CCCn2c(=O)[nH]c3c(Cl)cccc3c2=O)c(C)c1 (as salt: maleate) | 217 to 219 °C |
| O=c1[nH]c2c(Cl)cccc2c(=O)n1CCCN1CC2CC1CN2c1cccc(F)c1 (stereo not shown) (as salt: maleate) [Example 42, 8-CHLORO-3-{3-[5-(3-FLUORO-PHENYL)-2,5-DIAZA-BICYCLO[2.2.1]HEPT-2-YL]-PROPYL}-1H-QUINAZOLINE-2,4-DIONE] | 168 to 170 °C |
| O=c1[nH]c2c(Cl)cccc2c(=O)n1CCCN1CC2CCC1CN2c1ccc(Cl)c(Cl)c1 (stereo not shown) (as salt: maleate) [Example 48, 8-CHLORO-3-{3-[5-(3,4-DICHLORO-PHENYL)-2,5-DIAZA-BICYCLO[2.2.2]OCT-2-YL]-PROPYL}-1H-QUINAZOLINE-2,4-DIONE] | 68 to 73 °C (dec.) |
| Cc1ccc(N2CC3CCC2CN3CCCn2c(=O)[nH]c3c(Cl)cccc3c2=O)c(C)c1 (stereo not shown) (as salt: maleate) | 149 to 151 °C |
| O=c1[nH]c2c(Cl)cccc2c(=O)n1CCCN1C2CCC1CN(c1ccc(F)cc1)C2 (as salt: maleate) | 173 to 175 °C |
| O=c1[nH]c2ccccc2c(=O)n1CCCN1CC2CCC1CN2c1ccc(F)cc1 (stereo not shown) (as salt: maleate) [Example 49, 3-{3-[5-(4-FLUORO-PHENYL)-2,5-DIAZA-BICYCLO[2.2.2]OCT-2-YL]-PROPYL}-1H-QUINAZOLINE-2,4-DIONE] | 95 to 98 °C (dec.) |
| O=c1[nH]c2ccccc2c(=O)n1CCCN1C2CCC1CN(c1ccc(F)cc1)C2 (as salt: maleate) | 70 to 74 °C |
| O=c1[nH]c2c(Cl)cccc2c(=O)n1CCCN1CC2CCC1CN2c1ccc(F)cc1 (stereo not shown) (as salt: maleate) [Example 46, 8-CHLORO-3-{3-[5-(4-FLUORO-PHENYL)-2,5-DIAZA-BICYCLO[2.2.2]OCT-2-YL]-PROPYL}-1H-QUINAZOLINE-2,4-DIONE] | 186 to 188 °C |
| Cc1ccc2[nH]c(=O)n(CCCN3C4CCC3CN(c3ccc(Cl)cc3)C4)c(=O)c2c1 (as salt: hydrochloride) | > 300 °C |
| O=c1[nH]c2c(Cl)cccc2c(=O)n1CCCN1CC2CC1CN2c1ccc(Cl)cc1 (stereo not shown) (as salt: maleate) [Example 41, 8-CHLORO-3-{3-[5-(4-CHLORO-PHENYL)-2,5-DIAZA-BICYCLO[2.2.1]HEPT-2-YL]-PROPYL}-1H-QUINAZOLINE-2,4-DIONE] | 205 to 207 °C |
| O=c1[nH]c2c(Cl)cccc2c(=O)n1CCCN1C2CCC1CN(c1ccc(C(F)(F)F)cc1)C2 (as salt: maleate) | 205 to 207 °C |
| O=c1[nH]c2c(Cl)cccc2c(=O)n1CCCN1C2CCC1CN(c1ccc(Cl)c(Cl)c1)C2 (as salt: maleate) | 205 to 207 °C |
| O=c1[nH]c2c(Cl)cccc2c(=O)n1CCCN1C2CCC1CN(c1ccc(Cl)cc1)C2 (as salt: maleate) | 186 to 188 °C |
| O=c1[nH]c2ccccc2c(=O)n1CCCN1C2CCC1CN(c1ccc(Cl)c(Cl)c1)C2 (as salt: maleate) | 105 to 108 °C (dec.) |
